Measurements: patent publication US9561228B2 (Celgene Avilomics Research, Inc., priority 2013, dated 2017)

How the values were obtained:
[1] = system: ERK1/2 phosphorylation of p90RSK in HCT116 cells; test: Detection of total and phospho-RSK by MSD ELISA (HCT116); type: cell-based; conditions: Homo sapiens, HCT-116, read-out: ERK1/ERK2 PRSK HCT116 EC50
Description: Detection of Total and Phospho-RSK by MSD ELISA (HCT116)
(§1) The protocol below describes an assay to measure the kinase activity of ERK1/2 to phosphorylate a substrate, p90RSK, in the presence or absence of a test compound.
HCT116 cells were grown in RPMI/10% FBS. Prior to the assay, 50,000 cells per well were plated in a 96 well flat bottom plate. Cells were cultured overnight in an incubator at 37° C.
Compound stocks were 10 mM in DMSO. A 1000× dilution was made in DMSO. 1 uL of the DMSO solution was transferred to 1 ml RPMI/10% FBS in a deep well plate. Media in the cell plate was discarded, and 100 uL of the compound-containing media was added. The preparation was incubated at 37° C. for 2 hrs.
Preparation of cell lysates are described below.
pRSK or total RSK MSD Assay
(§2) MSD plates: Blank MSD plates were coated with 30 uL capture antibody (BD 610226) at a final concentration of 1 ug/mL in PBS. Both pRSK and total RSK MSD assays used the same capture antibody at the same concentration. Antibody stock concentration was 250 ug/mL. Once antibody solution was added to MSD plate, the sides were tapped to be certain it was coated completely (visual inspection). It was then covered and placed at 4° C. overnight on a level surface.
Block MSD Plate: The coating antibody was removed and the plate was washed on a plate washer in MSD wash buffer. The last bit of wash solution was tapped out and 150 uL/well 3% BSA (MSD Blocker A) in MSD wash buffer was added. The preparation was placed on a shaker at room temperature for at least an hour.
Add samples: Media was removed from compound-treated cells and replaced with 55 uL/well MSD cell lysis buffer containing protease and phosphotase I & II inhibitors. The preparations was incubate on a shaker in a cold room for 30-45 min. The blocked MSD plate was washed on a plate washer, and the last bit of wash solution was tapped out. Next was added 50 uL (of the 55 uL) cell lysate in a well-well transfer. The preparation was covered and incubated on shaker at room temp for 2 hours. The lysate was then removed and washed on plate washer 3 times. The last bit of wash buffer was then tapped out and replaced with 25 uL/well detection antibody (described below).
For pRSK detection, a pRSK antibody stock of 21 ug/mL was prepared as follows: 1 ug/mL pRSK Ser380 antibody (Cell Signaling Technology, Cat. #9335)+1:750 anti-rabbit SulfoTag (from MSD, R32AB-1) in 1% BSA in MSD wash buffer.
(§3) For total RSK detection, a total RSK antibody stock of 200 ug/mL was prepared as follows: 1 ug/mL total RSK (Santa Cruz sc-231G) antibody+1:750 anti-goat SulfoTag (from MSD, R32AG-1) in 1% BSA in MSD wash buffer.
The plate was incubated for 1 hr at room temperature on a shaker, followed by three washes. The last bit of wash buffer was tapped out. Next, 150 uL/well 1×MSD Read buffer was added and the plate was analyzed by the MSD reader.

[2] = system: ERK1/2 phosphorylation of p90RSK in A375 cells; test: Detection of total and phosphor-RSK by MSD ELISA (A375); type: cell-based; conditions: Homo sapiens, A-375, read-out: ERK1/ERK2 PRSK A375 EC50
Description: Detection of Total and Phosphor-RSK by MSD ELISA (A375)
as §1
A375 cells were grown in DMEM/10% FBS. Twenty four hours prior to the assay, 50,000 cells per well were plated in a 96 well flat bottom plate. Once cells attached to the plate, the medium was replaced with 100 ul of DMEM/0.1% FBS. Cells were cultured overnight in an incubator at 37° C.
Compound stock solutions of 10 mM in DMSO were prepared. 1000× dilutions were then prepared in DMSO. 1 uL of DMSO solution was then transferred to 1 ml DMEM/0.1% FBS in a deep well plate. Cell plate media was discarded, followed by addition of 100 uL of the compound-containing media. The preparation was incubated at 37° C. for 2 hrs.
Cell lysates were prepared as described below.
pRSK or Total RSK MSD Assay
as §2, with “added to the MSD plate,” for “added to MSD plate,”
Block MSD Plate: The coating antibody was removed and the plate was washed on a plate washer in MSD wash buffer. The last bit of wash solution was tapped out and 150 uL/well of 3% BSA in MSD wash buffer was added in. The preparation was placed on a shaker at room temperature for at least an hour.
Add samples: Media was removed from compound-treated cells and replaced with 55 uL/well MSD cell lysis buffer containing protease and phosphotase I & II inhibitors. The preparation was incubated on a shaker in a cold room for 30-45 min. The blocked MSD plate was washed a on plate washer, tapping out the last bit of wash solution, followed by addition of 50 uL (of the 55 ul) cell lysate in a well-well transfer. The preparation was covered and incubated on a shaker at room temp for 2 hours. The lysate was removed, washed on a plate washer 3 times, and the last bit of wash buffer was tapped out and replace with 25 uL/well detection antibody (described below).
For pRSK detection, a pRSK antibody stock of 21 ug/mL was prepared as follows: 1 ug/mL pRSK Ser380 antibody (Cell Signaling Technology, Cat. #9335)+1:750 anti-rabbit SulfoTag (Mesoscale Discovery, Cat. # R32AB-1) in 1% BSA in MSD wash buffer.
as §3
The plate was incubated for 1 hr at room temperature on a shaker, followed by three washings. The last bit of wash buffer was tapped out. 150 uL/well 1×MSD Read buffer was added and the plate was then analyzed.

[3] = system: ERK1/2 phosphorylation of p90RSK in HT29 cells; test: pRSK MSD Assay in HT29 cells; type: cell-based; conditions: Homo sapiens, HT-29, read-out: ERK1/ERK2 PRSK MSD HT29 EC50
Method in brief: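 Serum-starved HT29 cells (0.1% FBS overnight) treated with test compound for 120 min at 37° C, then lysed with protease and phosphatase inhibitors. Phospho-p90RSK quantified by MSD sandwich immunoassay: RSK capture antibody, phospho-RSK detection antibody plus Sulfo-tagged antibody, electrochemiluminescence read.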

Erk1 = target: T1, Erk1 (Homo sapiens, UniProt P27361); test: Protein Mass Modification Assay (intact protein MALDI, 60 min, 10-fold excess of compound); type: binding
T1 construct: purchased Millipore 14-439
T1 sequence (P27361 whole entry): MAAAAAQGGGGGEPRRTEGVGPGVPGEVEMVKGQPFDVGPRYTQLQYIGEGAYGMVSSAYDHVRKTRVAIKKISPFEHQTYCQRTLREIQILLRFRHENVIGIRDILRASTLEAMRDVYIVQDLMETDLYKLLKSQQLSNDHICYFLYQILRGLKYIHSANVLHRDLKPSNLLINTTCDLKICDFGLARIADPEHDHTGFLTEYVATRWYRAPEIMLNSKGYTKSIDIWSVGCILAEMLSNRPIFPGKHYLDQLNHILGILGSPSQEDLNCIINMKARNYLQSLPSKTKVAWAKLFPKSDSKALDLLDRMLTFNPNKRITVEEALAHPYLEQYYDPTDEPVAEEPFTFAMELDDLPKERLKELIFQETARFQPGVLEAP
Description: Protein Mass Modification Assay
Intact protein: Erk1 from Millipore (Cat. No. 14-439) was incubated for 60 min. at room temperature with a 10-fold excess of test compound to protein. 4 μL aliquots of the resulting mixture were diluted with 15 μL of 0.2% TFA prior to micro C4 ZipTipping directly onto the MALDI target using sinapinic acid as the desorption matrix (10 mg/ml in 0.1% TFA:Acetonitrile 50:50, v/v). The centroid mass of the target protein in the control sample was compared with the centroid mass of the target protein incubated with compound. A shift in the centroid mass of the treated protein compared to the untreated protein was divided by the molecular weight of the compound. This number corresponds to the percentage of modified protein after one hour incubation. Results from this assay are reported in Table A under the column “ERK1 Mass Mod (%).”

[4] = system: A375 cells (malignant melanoma); test: Inhibition of cancer cell proliferation, A375 (CellTiterGlo, 72 hours); type: cell-based; conditions: Homo sapiens, A-375
Description: Measurement of Inhibition of Cancer Cell Proliferation (A375/Malignant Melanoma)
The following protocol used an A375 cell line, which cell line is a model for malignant melanoma. A375 cells were split and 3000 cells in […] of growth medium were added per well of a flat-bottom 96-well plate. A two-fold test compound solution in serum-free DMEM was made, starting at 5,000 nM. Then, 3-fold serial dilutions were made across the plate from well 1 to well 11. Well 12, the last well in a row on the plate, was left as untreated control. 100 μl compound solutions were then transferred to the wells, so the total volume of media was 200 μl per well. Plates were returned to a 37° C. incubator, and the cells were cultured for 72 hours. To measure cell proliferation after 72 hours, media was discarded from the plates, 50 μl/well of fresh medium was added, and 50 μl CellTiterGlo solution was added (Promega Cat#G7573). The plate was covered with a dark lid and incubated for 10 min. A white sealing tape was applied to the bottom of the plate, and the plate was read in a luminescence plate reader. […] 50 μl CellTiterGlo was added per well, and the plate was read in a luminescence plate reader after 10 min. The reading was plotted vs. cell number to generate a standard curve and the equation of the curve fit. The compound-treated sample luminescence readings were converted to cell numbers using the curve-fit equation. The percent of inhibition, using untreated control as 100% growth, was then calculated. GI50 was then calculated by GraphPad Prism.

MEK1 activated ERK1 = target: T2, MEK1 activated ERK1 (Homo sapiens, UniProt P27361); test: Omnia continuous-read kinase assay for potency against MEK1 activated ERK1; type: biochemical; conditions: ATP at KM, WT
T2 construct: purchased Millipore (Billerica, Mass.) 14-439-K
T2 sequence (P27361 whole entry): as above
Method in brief: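 Apparent IC50 came from initial reaction slopes (RFU vs time) plotted against log inhibitor with a variable-slope fit. Reactions were started with ERK1 (4 nM final) added to 50 μM ATP, roughly at its appKM, and 10 μM Sox-conjugated ST17 peptide in 20 mM Tris pH 7.5, 5 mM MgCl2. Fluorescence was monitored every 71 seconds.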

| SMILES | EC50 [1] | EC50 [2] | EC50 [3] | ERK1 Mass Mod (%) (Erk1) | GI50 [4] | IC50 (MEK1 activated ERK1) |
| --- | --- | --- | --- | --- | --- | --- |
| C=CC(=O)Nc1cc(OCC(=O)N2CCN(c3ncccn3)CC2)ccc1Nc1nc(Nc2cc(OC)ncc2C)ncc1C(F)(F)F [Compound I-403, N-(2-((2-((2-methoxy-5-methylpyridin-4-yl)amino)-5-(trifluoromethyl)pyrimidin-4-yl)amino)-5-(2-oxo-2-(4-(pyrimidin-2-yl)piperazin-1-yl)ethoxy)phenyl)acrylamide] | 101 to 500 nM | 101 to 500 nM | < 100 nM | E (a mass modification of ≧70%) | – | – |
| C=CC(=O)Nc1cc(C(=O)N2CCN(C(=O)CO)CC2)ccc1Nc1nc(Nc2cc(OC)ncc2C)ncc1C(F)(F)F [Compound I-402, N-(5-(4-(2-hydroxyacetyl)piperazine-1-carbonyl)-2-((2-((2-methoxy-5-methylpyridin-4-yl)amino)-5-(trifluoromethyl)pyrimidin-4-yl)amino)phenyl)acrylamide] | 101 to 500 nM | 501 to 999 nM | 501 to 999 nM | E (a mass modification of ≧70%) | – | – |
| C=CC(=O)Nc1cc(C)ccc1Nc1nc(N[C@H]2CCCN(C(=O)CF)C2)ncc1C(F)(F)F [Compound I-43, (S)—N-(2-((2-((1-(2-Fluoroacetyl)piperidin-3-yl)amino)-5-(trifluoromethyl)pyrimidin-4-yl)amino)-5-methylphenyl)acrylamide] | – | – | – | E (a mass modification of ≧70%) | < 100 nM | – |
| COc1cc(Nc2ncc(C(F)(F)F)c(Nc3ccc(C)cc3N)n2)c(C)cn1 [Compound I-353, N^4-(2-amino-4-methylphenyl)-N^2-(2-methoxy-5-methylpyridin-4-yl)-5-(trifluoromethyl)pyrimidine-2,4-diamine] | > 1000 nM | > 1000 nM | – | G (a mass modification ≦30%) | – | – |
| C=CC(=O)Nc1cc(C)ccc1Nc1nc(Nc2cc(OC)ncn2)ncc1C(F)(F)F [Compound I-348, N-(2-((2-((6-methoxypyrimidin-4-yl)amino)-5-(trffluoromethyl)pyrimidin-4-yl)amino)-5-methylphenyl)acrylamide] | 501 to 999 nM | 501 to 999 nM | 101 to 500 nM | G (a mass modification ≦30%) | – | – |
| C=CC(=O)Nc1cc(C)ccc1Nc1nc(Nc2nc(O)ncc2Cl)ncc1C(F)(F)F [Compound I-363, N-(2-((2-((5-chloro-2-hydroxypyrimidin-4-yl)amino)-5-(trifluoromethyl)pyrimidin-4-yl)amino)-5-methylphenyl)acrylamide] | > 1000 nM | > 1000 nM | > 1000 nM | E (a mass modification of ≧70%) | – | – |
| C=CC(=O)Nc1cc(CN2CCN(C)CC2)ccc1Nc1nc(Nc2cc(OC)ncc2C)ncc1C(F)(F)F [Compound I-380, N-(2-((2-((2-methoxy-5-methylpyridin-4-yl)amino)-5-(trifluoromethyl)pyrimidin-4-yl)amino)-5-((4-methylpiperazin-1-yl)methyl)phenyl)acrylamide] | – | > 1000 nM | 501 to 999 nM | E (a mass modification of ≧70%) | – | > 1000 nM |
| C=CC(=O)Nc1cc(C)ccc1Nc1nc(Nc2cc(O)ncc2C)ncc1C(F)(F)F [Compound I-365, N-(2-((2-((2-hydroxy-5-methylpyridin-4-yl)amino)-5-(trifluoromethyl)pyrimidin-4-yl)amino)-5-methylphenyl)acrylamide] | > 1000 nM | > 1000 nM | > 1000 nM | E (a mass modification of ≧70%) | – | – |
